Laboratory results: the NIST ThermoML archive (doi:10.1016/j.jct.2015.07.042)
Numbers after ± are expanded uncertainties.

Test: activity coefficient (dimensionless); of the first substance listed, at infinite dilution; xn = mol fraction of the nth substance listed
Settings: 101 kPa, Liquid, Chromatography, x1 = 0

Structure (SMILES)	activity coefficient (358.15 K)	activity coefficient (368.15 K)	activity coefficient (378.15 K)	activity coefficient (388.15 K)	activity coefficient (398.15 K)	activity coefficient (408.15 K)	activity coefficient (418.15 K)	activity coefficient (428.15 K)
C#CCCCCC [1-heptyne] + CCCCn1cc[n+](C)c1.[Cl-]	11.6 ± 0.79	12.3 ± 0.84	12.7 ± 0.87	13.3 ± 0.91	–	–	–	–
CCCCCCCCCC [decane] + CCCCn1cc[n+](C)c1.COP(=O)([O-])OC	93.4 ± 6.4	88.5 ± 6.1	84.7 ± 5.8	81.6 ± 5.6	–	–	–	–
CC(C)=O [acetone] + CCCCn1cc[n+](C)c1.COP(=O)([O-])OC	1.92 ± 0.13	1.96 ± 0.13	2.02 ± 0.14	2.1 ± 0.14	–	–	–	–
C1CCCC1 [cyclopentane] + CCCCn1cc[n+](C)c1.COP(=O)([O-])OC	8.76 ± 0.6	8.59 ± 0.59	8.41 ± 0.57	8.33 ± 0.57	–	–	–	–
CCCCO [butan-1-ol] + CCCCn1cc[n+](C)c1.CS(=O)(=O)[O-]	–	–	–	–	0.937 ± 0.059	0.984 ± 0.062	1.02 ± 0.064	1.07 ± 0.068
CCCCCCCCCC [decane] + CCCCn1cc[n+](C)c1.CS(=O)(=O)[O-]	371 ± 26	352 ± 24	340 ± 23	324 ± 22	–	–	–	–
CCCC(=O)OC [methyl butanoate] + CCCCn1cc[n+](C)c1.COP(=O)([O-])OC	4.93 ± 0.34	5.04 ± 0.34	5.17 ± 0.35	5.39 ± 0.37	–	–	–	–
Cc1cccc(C)c1 [1,3-dimethylbenzene] + CCCCn1cc[n+](C)c1.CS(=O)(=O)[O-]	9.27 ± 0.63	9.43 ± 0.64	9.57 ± 0.65	9.92 ± 0.68	–	–	–	–
CC#N [acetonitrile] + CCCCn1cc[n+](C)c1.COP(=O)([O-])OC	0.88 ± 0.06	0.92 ± 0.06	0.95 ± 0.06	1 ± 0.06	–	–	–	–
CCCC(=O)OC [methyl butanoate] + CCCCn1cc[n+](C)c1.CS(=O)(=O)[O-]	6.79 ± 0.46	7.21 ± 0.49	7.39 ± 0.5	7.84 ± 0.53	–	–	–	–
C=CCCCCCC [oct-1-ene] + CCCCn1cc[n+](C)c1.COP(=O)([O-])OC	27.5 ± 1.9	26.9 ± 1.8	26.5 ± 1.8	26.2 ± 1.8	–	–	–	–
C1=CCCCC1 [cyclohexene] + CCCCn1cc[n+](C)c1.COP(=O)([O-])OC	7.15 ± 0.49	7.13 ± 0.49	7.11 ± 0.48	7.11 ± 0.48	–	–	–	–
CC(C)=O [acetone] + CCCCn1cc[n+](C)c1.CS(=O)(=O)[O-]	2.06 ± 0.14	2.12 ± 0.14	2.22 ± 0.15	2.3 ± 0.16	–	–	–	–
CCC(C)(C)OC [2-methoxy-2-methylbutane] + CCCCn1cc[n+](C)c1.COP(=O)([O-])OC	9.5 ± 0.65	9.61 ± 0.66	9.66 ± 0.66	9.75 ± 0.67	–	–	–	–
CCCCCCCCC [nonane] + CCCCn1cc[n+](C)c1.COP(=O)([O-])OC	67.9 ± 4.7	64 ± 4.4	61.5 ± 4.2	59.1 ± 4	–	–	–	–
C#CCCCCC [1-heptyne] + CCCCn1cc[n+](C)c1.CS(=O)(=O)[O-]	12 ± 0.82	12.6 ± 0.86	13.3 ± 0.91	14.1 ± 0.96	–	–	–	–
C1CCOC1 [tetrahydrofuran] + CCCCn1cc[n+](C)c1.CS(=O)(=O)[O-]	3.41 ± 0.23	3.48 ± 0.24	3.59 ± 0.24	3.72 ± 0.25	–	–	–	–
CCCO [propan-1-ol] + CCCCn1cc[n+](C)c1.COP(=O)([O-])OC	–	–	–	–	0.197 ± 0.029	0.218 ± 0.029	0.239 ± 0.029	0.264 ± 0.03
CCC(C)(C)OC [2-methoxy-2-methylbutane] + CCCCn1cc[n+](C)c1.CS(=O)(=O)[O-]	23.8 ± 1.6	24.2 ± 1.6	24.7 ± 1.7	25.3 ± 1.7	–	–	–	–
CCOCC [diethyl ether] + CCCCn1cc[n+](C)c1.[Cl-]	19.3 ± 1.3	18.9 ± 1.3	18.4 ± 1.3	18.4 ± 1.3	–	–	–	–
CCc1ccccc1 [ethylbenzene] + CCCCn1cc[n+](C)c1.[Cl-]	13.2 ± 0.9	13.2 ± 0.9	13.5 ± 0.92	13.7 ± 0.94	–	–	–	–
C1CCOC1 [tetrahydrofuran] + CCCCn1cc[n+](C)c1.[Cl-]	5.66 ± 0.39	5.67 ± 0.39	5.67 ± 0.39	5.7 ± 0.39	–	–	–	–
CCCC(C)=O [pentan-2-one] + CCCCn1cc[n+](C)c1.[Cl-]	7.59 ± 0.52	7.71 ± 0.53	7.78 ± 0.53	8.01 ± 0.55	–	–	–	–

Structure (SMILES)	activity coefficient (358.15 K)	activity coefficient (368.15 K)	activity coefficient (378.15 K)	activity coefficient (388.15 K)	activity coefficient (398.15 K)	activity coefficient (408.15 K)	activity coefficient (418.15 K)	activity coefficient (428.15 K)
CCC(=O)OC [methyl propanoate] + CCCCn1cc[n+](C)c1.CS(=O)(=O)[O-]	4.43 ± 0.3	4.56 ± 0.31	4.68 ± 0.32	4.9 ± 0.33	–	–	–	–
CC(C)OC(C)C [diisopropyl ether] + CCCCn1cc[n+](C)c1.[Cl-]	78.5 ± 5.4	71.7 ± 4.9	64 ± 4.4	59.1 ± 4	–	–	–	–
C=C(C)c1ccccc1 [(1-methylethenyl)benzene] + CCCCn1cc[n+](C)c1.[Cl-]	9.01 ± 0.61	9.33 ± 0.64	9.83 ± 0.67	10.3 ± 0.71	–	–	–	–
CC(C)(C)O [2-methylpropan-2-ol] + CCCCn1cc[n+](C)c1.COP(=O)([O-])OC	–	–	–	–	0.419 ± 0.035	0.471 ± 0.037	0.527 ± 0.039	0.592 ± 0.042
Cc1ccccc1C [1,2-dimethylbenzene] + CCCCn1cc[n+](C)c1.CS(=O)(=O)[O-]	7.64 ± 0.52	7.79 ± 0.53	7.99 ± 0.54	8.21 ± 0.56	–	–	–	–
c1ccncc1 [pyridine] + CCCCn1cc[n+](C)c1.COP(=O)([O-])OC	1.18 ± 0.08	1.23 ± 0.08	1.28 ± 0.08	1.35 ± 0.09	–	–	–	–
CCC(C)O (stereo not drawn) [butan-2-ol] + CCCCn1cc[n+](C)c1.CS(=O)(=O)[O-]	–	–	–	–	1.11 ± 0.071	1.18 ± 0.075	1.25 ± 0.081	1.33 ± 0.087
Cc1cccc(C)c1 [1,3-dimethylbenzene] + CCCCn1cc[n+](C)c1.COP(=O)([O-])OC	6.49 ± 0.44	6.6 ± 0.45	6.73 ± 0.46	7 ± 0.48	–	–	–	–
CCO [ethanol] + CCCCn1cc[n+](C)c1.[Cl-]	–	–	–	–	0.297 ± 0.031	0.313 ± 0.031	0.332 ± 0.032	0.353 ± 0.032
CCCC=O [butanal] + CCCCn1cc[n+](C)c1.[Cl-]	5.24 ± 0.36	5.31 ± 0.36	5.43 ± 0.37	5.54 ± 0.38	–	–	–	–
C#CCCCC [1-hexyne] + CCCCn1cc[n+](C)c1.COP(=O)([O-])OC	3.01 ± 0.2	3.22 ± 0.22	3.39 ± 0.23	3.57 ± 0.24	–	–	–	–
c1ccsc1 [thiophene] + CCCCn1cc[n+](C)c1.CS(=O)(=O)[O-]	1.72 ± 0.12	1.81 ± 0.12	1.94 ± 0.13	2.05 ± 0.14	–	–	–	–
C#CCCC [1-pentyne] + CCCCn1cc[n+](C)c1.[Cl-]	4.89 ± 0.33	5.25 ± 0.36	5.51 ± 0.38	5.78 ± 0.39	–	–	–	–
CC(C)OC(C)C [diisopropyl ether] + CCCCn1cc[n+](C)c1.CS(=O)(=O)[O-]	40.6 ± 2.8	–	40.8 ± 2.8	41.2 ± 2.8	–	–	–	–
CCC(=O)CC [pentan-3-one] + CCCCn1cc[n+](C)c1.COP(=O)([O-])OC	3.73 ± 0.25	3.81 ± 0.26	3.89 ± 0.26	4.04 ± 0.28	–	–	–	–
Cc1ccccc1C [1,2-dimethylbenzene] + CCCCn1cc[n+](C)c1.COP(=O)([O-])OC	5.54 ± 0.38	5.7 ± 0.39	5.79 ± 0.39	6.03 ± 0.41	–	–	–	–
c1ccccc1 [benzene] + CCCCn1cc[n+](C)c1.CS(=O)(=O)[O-]	3.08 ± 0.21	3.19 ± 0.22	3.29 ± 0.22	3.46 ± 0.24	–	–	–	–
CCOC(C)(C)C [2-ethoxy-2-methylpropane] + CCCCn1cc[n+](C)c1.[Cl-]	64.8 ± 4.4	59.3 ± 4.1	55.7 ± 3.8	53.3 ± 3.6	–	–	–	–
CC(C)O [propan-2-ol] + CCCCn1cc[n+](C)c1.CS(=O)(=O)[O-]	–	–	–	–	0.835 ± 0.054	0.878 ± 0.056	0.928 ± 0.059	0.976 ± 0.061
C1CCCCCC1 [cycloheptane] + CCCCn1cc[n+](C)c1.[Cl-]	62.7 ± 4.3	58.8 ± 4	55.4 ± 3.8	53.6 ± 3.7	–	–	–	–
C1=CCCCC1 [cyclohexene] + CCCCn1cc[n+](C)c1.[Cl-]	22.8 ± 1.6	22.3 ± 1.5	21.5 ± 1.5	21.3 ± 1.5	–	–	–	–
CCCC(C)=O [pentan-2-one] + CCCCn1cc[n+](C)c1.CS(=O)(=O)[O-]	4.5 ± 0.31	4.59 ± 0.31	4.76 ± 0.32	4.91 ± 0.33	–	–	–	–
Cc1ccc(C)cc1 [1,4-dimethylbenzene] + CCCCn1cc[n+](C)c1.COP(=O)([O-])OC	6.31 ± 0.43	6.44 ± 0.44	6.59 ± 0.45	6.86 ± 0.47	–	–	–	–
